In brackets after ≈: the same amount, converted by molar mass. Where two headings read alike, the source gives them in different places.
Experiments:
[1] = tested on: E. coli K-12 MG1655 and isogenic matched strains; experiment: MIC against E. coli K-12 MG1655 and isogenic matched strains; type: cell-based; settings: for MIC: Escherichia coli
Experimental: (§1) Minimum Inhibitory Concentration (MIC). MICs were determined by performing two-fold serial dilutions of compound in Mueller Hinton II cation-adjusted broth to a final volume of 0.1 m1 in round-bottom 96-well assay plates (Corning Life Sciences No 3788). Each well was inoculated with 5×10^5 CFU/ml and incubated at 37° C. without agitation for 18 hours. Plates were scored by eye, and the lowest compound concentration preventing visible growth was determined to be the MIC.

K. pneumoniae (CDC 0106) = experiment: Neutropenic lung infection model in mice; type: in vivo; settings: 20 h
Experimental: Balb/c mice (Jackson Laboratories) were rendered neutropenic by 2 intraperitoneal injections of Cytoxan (Baxter Health Care Corporation) at 150 mg/kg on Day −4 and 100 mg/kg on Day −1. On day 0, mice were infected intranasally with 40 ul log-phase grown K. pneumoniae (CDC 0106) at 1×10^6 CFU/mouse. At 2 and 11 hours post infection, G0775 was given at different doses subcutaneously. Ciprofloxacin (Claris Lifesciences Inc.) was dosed at 80 mg/kg subcutaneously once at 2 hour post infection. At 20 hours post infection, CFU was determined in the lung through serial dilutions.

[2] = tested on: MDR K. pneumoniae CDC 0106; experiment: MIC against MDR clinical isolate; type: cell-based; settings: Klebsiella pneumoniae; MDR K. pneumoniae CDC 0106; read-out: MIC
Experimental: as §1

E. coli ATCC 25922 [3] = experiment: Time-kill; type: cell-based; settings: E. coli ATCC 25922, across a 24 hour period
Source text: FIG. 5. […] Colony forming units (CFU) per mL data shown is an average of at least three independent experiments with error bars representing the SD.

[4] = tested on: E. coli strain ATCC 25922; experiment: Neutropenic thigh infection model in mice; type: in vivo; settings: 1 mg/kg subcutaneously BID at 2 and 11 h, 20 h post infection
Experimental: (§2) CD1 mice (Charles River Laboratories) were rendered neutropenic by 2 intraperitoneal injections of Cytoxan (Baxter Health Care Corporation) at 150 mg/kg on Day -5 and 100 mg/kg on Day -2. On day 0, 50 ul log-phase grown bacteria, K. pneumoniae (ATCC 43816) 1×10^5 CFU/mouse, E. coli (ATCC 25922) 1×10^5 CFU/mouse, P. aeruginosa (ATCC 27853) 1×10^6 CFU/mouse, or A. baumannii (ATCC 17978) 1×10^5 CFU/mouse, were injected into the mouse thigh muscle. At 2 and 11 hours post infection, […] was given at indicated dose subcutaneously. At 20 hours post infection, CFU was determined in the thigh muscle through serial dilutions.

P. aeruginosa 27853 = experiment: Neutropenic thigh infection model in mice; type: in vivo; settings: required a higher concentration of antibiotic; subcutaneous BID
Experimental: as §2

A. baumannii 17978 = experiment: Neutropenic thigh infection model in mice; type: in vivo; settings: required a higher concentration of antibiotic; subcutaneous BID
Experimental: as §2

[5] = tested on: K. pneumoniae strain ATCC 43816; experiment: Neutropenic thigh infection model in mice; type: in vivo; settings: 5 mg/kg subcutaneously BID at 2 and 11 h, 20 h post infection
Experimental: as §2

K. pneumoniae ATCC 43816 = experiment: MIC, broth microdilution; type: cell-based
Experimental: as §1

C. werkmanii ATCC 51114 = experiment: MIC, broth microdilution; type: cell-based; settings: Citrobacter werkmanii, ATCC51114, read-out: MIC
Experimental: as §1

E. aerogenes ATCC 13408 = experiment: MIC, broth microdilution; type: cell-based; settings: Klebsiella aerogenes, ATCC13408, read-out: MIC
Experimental: as §1

E. coli ATCC 25922 [6] = experiment: MIC, broth microdilution; type: cell-based
Experimental: as §1

E. cloacae ATCC 13407 = experiment: MIC, broth microdilution; type: cell-based; settings: Enterobacter cloacae, ATCC13407, read-out: MIC
Experimental: as §1

S. marcescens CDC4385-74 = experiment: MIC, broth microdilution; type: cell-based; settings: Serratia marcescens, CDC438574, read-out: MIC
Experimental: as §1

A. baumannii ATCC 17978 = experiment: MIC, broth microdilution; type: cell-based; settings: Acinetobacter baumannii, ATCC17978, read-out: MIC
Experimental: as §1

P. aeruginosa ATCC 27853 = experiment: MIC, broth microdilution; type: cell-based; settings: Pseudomonas aeruginosa, ATCC27853, read-out: MIC
Experimental: as §1

[7] = tested on: E. coli ATCC 25922 point mutants; experiment: MIC against spontaneous G0775-resistant point mutants; type: cell-based
Experimental: as §1
20 independent colonies from each bacterial species were scraped and used to establish an overnight culture. Bacteria were concentrated by centrifugation, and approximately 3×10^9 CFUs were spread on cation adjusted Mueller Hinton agarose (MHA) plates containing G0775 at 2- to 8-times the MIC. The MHA plates were prepared from Mueller Hinton II cation adjusted broth (BBL™ 212322) and SeaKem LE Agarose (17 g/L; Lonza) as per manufactures instructions. Resistance frequency for each strain was calculated by dividing the number of colonies formed after a 48 hour incubation at 37° C. by the initial viable cell count.

For `Cc1nc(-c2ccc(C(C)(C)C)cc2)ncc1C(=O)NC(CCN)C(=O)N(C)C1C(=O)NC(C)C(=O)NC(C(=O)NCC#N)Cc2ccc(OCCN)c(c2)-c2cc1ccc2OCCN` (stereo not shown) [G0775], the MIC ([1]; MG1655, read-out: G0775 MIC, MG 1655 - LepB High, increase LepB expression level) was 1 µg/mL (≈ 1.12 µM), the MIC ([1]; MG1655, read-out: G0775 MIC, MG 1655 - LepB Low, reduced LepB expression level) was 0.008 µg/mL (≈ 0.00899 µM) and the MIC ([1]; MG1655, read-out: G0775 MIC, MG 1655 LptD4213 (imp), outer-membrane permeable) was 0.004 µg/mL (≈ 0.00449 µM). For the same compound, the MIC ([1]; MG1655, read-out: G0775 MIC, MG1655 WT) was 0.125 µg/mL (≈ 0.14 µM), the MIC ([1]; MG1655, read-out: G0775 MIC, MG1655 WT + 4 mM EDTA, outer-membrane permeable) was 0.004 µg/mL and the MIC ([1]; MG1655, read-out: G0775 MIC, MG1655 WT + 1% surfactant, lung inactivation) was 0.125 µg/mL. For the same compound, the MIC ([1]; MG1655, read-out: G0775 MIC, MG1655 WT + 50% serum, plasma protein binding) was 0.125 µg/mL, the MIC ([1]; MG1655, read-out: G0775 MIC, MG 1655 ΔacrB, efflux null) was 0.125 µg/mL (≈ 0.14 µM) and the MIC ([1]; MG1655, read-out: G0775 MIC, MG 1655 ΔompC, ΔompF, doubly porin deficient) was 0.125 µg/mL (≈ 0.14 µM). For the same compound, the MIC ([1]; MG1655, read-out: G0775 MIC, MG 1655 ΔompC, porin deficient) was 0.125 µg/mL (≈ 0.14 µM), the MIC ([1]; MG1655, read-out: G0775 MIC, MG 1655 ΔompF, porin deficient) was 0.125 µg/mL (≈ 0.14 µM) and the MIC ([1]; MG1655, read-out: G0775 MIC, MG 1655 ΔtolC, efflux null) was 0.125 µg/mL (≈ 0.14 µM). The “increase in potency relative to wild type E. coli” value ([1]; hyper-permeable E. coli strain (imp4213)) was 30 fold, the “increase in MIC values” ([1]; over-expression of LepB in E. coli K12 MG1655) was 8 fold and the “decrease in MIC values” ([1]; under-expression of LepB in E. coli K12 MG1655) was 16 fold. The “antibacterial activity in lung infection model” value (K. pneumoniae (CDC 0106); 2 mg/kg subcutaneously BID) was “bacteriostatic activity”, the “antibacterial activity in lung infection model” value (K. pneumoniae (CDC 0106); 20 mg/kg subcutaneously BID) was “bactericidal activity” and the MIC [2] was 0.5 µg/mL (≈ 0.562 µM). The “reduction of the number of viable bacteria (time-dependent killing)” value (E. coli ATCC 25922 [3]) was “over 6 orders of magnitude”, the “decrease in CFU (bactericidal activity)” value [4] was > 2 log and the “efficacy in neutropenic thigh model” value (P. aeruginosa 27853) was “efficacious”. For the same compound, the “efficacy in neutropenic thigh model” value (A. baumannii 17978) was “efficacious”, the “decrease in CFU (bactericidal activity)” value [5] was > 2 log and the “potency relative to arylomycin A-C16” value (K. pneumoniae ATCC 43816; K. pneumoniae, more potent than arylomycin A-C16) was > 500 fold. It also gave an MIC (K. pneumoniae ATCC 43816; Klebsiella pneumoniae, ATCC43816, K. pneumoniae ATCC 43816, read-out: MIC) of 0.125 µg/mL (≈ 0.14 µM), an MIC (C. werkmanii ATCC 51114) of 0.125 µg/mL (≈ 0.14 µM) and an MIC (E. aerogenes ATCC 13408) of 0.125 µg/mL (≈ 0.14 µM). For the same compound, the “potency relative to arylomycin A-C16” value (E. coli ATCC 25922 [6]; E. coli, more potent than arylomycin A-C16) was > 500 fold, the MIC (E. coli ATCC 25922 [6]; Escherichia coli, ATCC25922, E. coli ATCC 25922, read-out: MIC) was 0.125 µg/mL (≈ 0.14 µM) and the MIC (E. cloacae ATCC 13407) was 0.25 µg/mL (≈ 0.281 µM). The MIC (S. marcescens CDC4385-74) was 0.125 µg/mL (≈ 0.14 µM), the MIC (A. baumannii ATCC 17978) was 1 µg/mL (≈ 1.12 µM) and the MIC (P. aeruginosa ATCC 27853) was 4 µg/mL (≈ 4.49 µM). For the same compound, the “Fold MIC Increase” value ([7]; LepB mutation A297V) was 4 Fold, the “Fold MIC Increase” value ([7]; LepB mutation D143Y) was 8 Fold and the “Fold MIC Increase” value ([7]; LepB mutation E83K) was 16 Fold. The “Fold MIC Increase” value ([7]; LepB mutation F85S) was 8 Fold, the “Fold MIC Increase” value ([7]; LepB mutation L142R) was 8 Fold and the “Fold MIC Increase” value ([7]; LepB mutation P88L) was 16 Fold. For the same compound, the “Fold MIC Increase” value ([7]; LepB mutation P88Q) was 4 Fold, the “Fold MIC Increase” value ([7]; LepB mutation P88R) was 16 Fold and the “Fold MIC Increase” value ([7]; LepB mutation P88T) was 4 Fold. The “Fold MIC Increase” value ([7]; LepB mutation V133F) was 16 Fold, the “Fold MIC Increase” value ([7]; LepB mutation V149(VVGLP)) was 128 Fold and the “Fold MIC Increase” value ([7]; mutation AcrB (N282Y), off-target) was 4 Fold. For the same compound, the “reduction of susceptibility to G0775 by resistance mutations” value ([7]; resistant E. coli mutants) was 4- to 16 fold.

Reference: patent publication US20200262869A1, “PEPTIDE ANTIBIOTIC COMPLEXES AND METHODS OF USE THEREOF” (GENENTECH, INC., priority 2017, published 2020)
